Data set [1] has as its system chemotherapeutic drug-induced mouse model with hand-foot syndrome. Nature of the data set: Chemotherapeutic drug-induced mouse model with hand-foot syndrome. Type of data set: in vivo, ICR mice. The following applies: for degree of swelling of the hind limb toes of the mice: continuous oral administration of modeling drug for 14 days; for epidermal layer and stratum corneum in the skin tissues of the hind limb toes: modeling drug oral for 14 days versus normal control group, pathological staining; for skin of the hind limb toes of the mice (appearance): modeling for 14 days (capecitabine 200 mg/kg, docetaxel 25 mg/kg oral), versus normal control group. The source says: After adaptive feeding for 7 days, SPF-grade ICR mice (male, 5-6 weeks old, with a body weight of approximately 35 g) were randomly divided into groups, including a blank control group (6 mice), a capecitabine modeling group (6 mice), a docetaxel modeling group (6 mice), a capecitabine + compound of formula (I) group (6 mice), a docetaxel + compound of formula (I) group (6 mice), a capecitabine + nicotinamide group (6 mice), and a docetaxel + nicotinamide group (6 mice). The groups were respectively administered corresponding modeling drugs by oral gavage (capecitabine at 200 mg/kg and docetaxel at 25 mg/kg) once daily; and the blank control group was administered an equivalent volume of normal saline. After administration with the chemotherapeutic drugs for 2 weeks, the ointments containing the compound of formula (I) (at a compound content of 3%) used in Example 10 were respectively applied topically in the groups, or nicotinamide was orally administered (100 mg/kg) once daily continuously for 16 days.
(§1) Measurement of the degree of swelling of toes: The degree of swelling of hind limb toes of the mice was measured using a toe swelling tester (KW-7C, Nanjing Calvin Biotechnology Co., Ltd.) before administration with the modeling drugs, after administration with the modeling drugs for 2 weeks, and before sacrifice, respectively. Before measurement, ankle joints of hind feet of the mice were marked at same positions before administration, after administration for 2 weeks, and before sacrifice. During measurement, water was properly located at the same level as the marked positions, and numerical values were recorded after becoming stable.
(§2) Pathological staining of skin tissues: Skin tissue samples were selected from hind limb toes of the mice and placed in 4% paraformaldehyde for fixation at room temperature for 4 hours. Then, the tissues were taken out and rinsed with running water for several hours. The samples were subjected to dehydration treatment with 70%, 80%, and 90% ethanol solutions, followed by treatment with a mixed solution of equal amounts of absolute alcohol and xylene for 15 minutes, and then permeabilized twice with a xylene solution for 15 minutes each time until the samples became transparent. The samples were placed in a mixture of half xylene and half paraffin for soaking for 15 minutes, and then, paraffin I and paraffin II were added for wax penetration for one hour, respectively. After embedding with paraffin, the samples were sectioned, baked, dewaxed, and hydrated. Then, the hydrated sections were placed in a hematoxylin solution (ZSGB-BIO, article No. 23041001) for staining for 3 minutes, and a differentiation solution of hydrochloric acid in ethanol was added for differentiation for 15 seconds. After rinsing with water, a Scott bluing solution (Servicebio, article No. 20230801) was added for bluing for 15 seconds. After rinsing with running water, the sections were stained with an eosin solution (Solarbio, article No. 33535) for 3 minutes, rinsed with running water, dehydrated, permeabilized, sealed, and inspected under a microscope.
(§3) Immunohistochemical staining: After baking, dewaxing, and hydration, paraffin sections of skin tissues of hind limb toes of the mice were subjected to antigen retrieval using a 0.2 M citric acid buffer solution (containing 1.534 g of citric acid, 3.1 g of sodium citrate, and 100 mL of distilled water, pH 4.7). Endogenous […] was removed using 3% hydrogen peroxide (Shandong Annjet High-Tech Disinfection Technology Co., Ltd., article No. 20290902), and the sections were incubated at room temperature for 10 minutes and then fully rinsed with a PBS buffer solution (containing 8 g of NaCl, 0.2 g of KCl, 1.44 g of Na2HPO4, and 1 M HCl, pH 7.4). The sections were permeabilized with 0.5% Triton-X-100 (AmyJet Scientific, article No. A-CSH436-100 mL), respectively permeabilized with mouse anti-IL-1β and rabbit IL-8 for 10 minutes, and not permeabilized with rabbit anti-IL-6. […]

Data set [2] relates to kinase inhibitor-induced mouse model with hand-foot skin reaction. Nature of the data set: Kinase inhibitor-induced mouse model with hand-foot skin reaction. The format is in vivo, ICR mice. The following applies: for degree of swelling of the hind limb toes of the mice: continuous oral administration of modeling drug for 14 days; for epidermal layer and stratum corneum in the skin tissues of the hind limb toes: modeling drug oral for 14 days versus normal control group, pathological staining; for skin of the hind limb toes of the mice (appearance): modeling for 14 days (sorafenib 100 mg/kg, osimertinib 10 mg/kg oral), versus normal control group; for cytokine IL-1β in the skin tissues of the hind limb toes: immunohistochemistry, p<0.05.
Text: After adaptive feeding for 7 days, SPF-grade ICR mice (male, 5-6 weeks old, with a body weight of approximately 35 g) were randomly divided into groups, including a blank control group (6 mice), a sorafenib modeling group (6 mice), an osimertinib modeling group (6 mice), a sorafenib + compound of formula (I) group (6 mice), an osimertinib + compound of formula (I) group (6 mice), a sorafenib + nicotinamide group (6 mice), and an osimertinib + nicotinamide group (6 mice). The groups were respectively administered corresponding modeling drugs by oral gavage (sorafenib at 100 mg/kg and osimertinib at 10 mg/kg) once daily; and the blank control group was administered an equivalent volume of normal saline. After administration with the chemotherapeutic drugs for 2 weeks, the ointments containing the compound of formula (I) (at a compound content of 3%) used in Example 10 were respectively applied topically in the groups, or nicotinamide was orally administered (100 mg/kg) once daily continuously for 16 days.
as §1, §2, §3

The test system of data set [3] is rat models with hand-foot skin reaction. Nature of the data set: Rat models with hand-foot skin reaction, topical ointment (incidence rate, histology, immunohistochemistry). The format is in vivo, SD rats. The following applies: for Incidence rate, left paw / Incidence rate, right paw: modeling drug alone by gavage once daily 30 days (sorafenib 100, erlotinib 70, afatinib 50, osimertinib 60 mg/kg), no compound in ointment; for successful modeling rates for the hand-foot skin reaction: once daily by gavage at 100, 70, 50 and 60 mg/kg (sorafenib, erlotinib, afatinib, osimertinib), SD rats. The procedure:
After adaptive feeding for one week, SD rats (with a body weight of approximately 200 g) were randomly divided into groups with balanced body weight, with 12 rats in each group. Modeling drugs (including sorafenib, erlotinib, afatinib, and osimertinib) were respectively dissolved in a solution containing 5% of DMSO, 45% of PEG400, and 50% of H2O, and the modeling drugs were diluted to required concentrations and then administered once daily by gavage at doses shown in Table 3. After administration by gavage for 1 hour, 0.05 g of ointments containing different mass proportions of test compounds were evenly applied to left paws of the rats, a blank matrix ointment was applied to right paws of the rats to serve as a self-control, and no ointment was applied to the rats in a blank control group. After drug application, four limbs were continuously immobilized for 2 hours, then wiped with clean water to remove the residual drugs, removed from immobilization, and restored to free movement. The modeling drugs, the blank matrix ointment, and the ointments containing the test compounds were all administered once daily. After continuous administration for 30 days, the rats were euthanized, and paw plantar skin tissues were collected, fixed in 10% neutral formalin, […]. The ointments for the test compounds were prepared by mixing the compounds, white beeswax, white petrolatum, and light liquid paraffin in specific ratios (weight ratios of 3 ointments were respectively 1:18:58:23, 3:18:57:22, and 10:20:40:30). The blank matrix ointment was prepared by mixing white beeswax, white petrolatum, and light liquid paraffin in a specific ratio (weight ratio of 18:60:22).
Tissue staining: After dewaxing and rehydration, the paw plantar skin tissue sections of the above rats were stained in a hematoxylin solution for several minutes, cleaned, and placed in 1% acid alcohol for soaking until the sections faded to light blue-red. After cleaning with running water for 5 minutes, the sections were stained with eosin for 2-3 minutes, cleaned to remove excess dyes, dehydrated, then permeabilized by adding xylene for several minutes, and sealed and fixed with a neutral resin. The stratum corneum was observed under an optical microscope, and the thickness of the epidermal stratum corneum was measured using Dmetrix software.
Immunohistochemical staining: After dewaxing and hydration, the paw plantar skin tissue sections of the above rats were incubated with 3% H2O2 at room temperature for 30 minutes and blocked with 10% goat serum for 30 minutes after antigen retrieval. A KRT1 antibody (Abcam, ab93652) and a Loricrin antibody (Abcam, ab183646) were added dropwise, the sections were incubated overnight at 4°C, and an HRP secondary antibody (ZSGB-BIO, PV-6001) and a DAB kit (ZSG-BIO, ZLI9017) were added for color development. The sections were re-stained with hematoxylin, cleaned, and sealed and fixed with a neutral resin, and the expression amounts of KRT1 and Loricrin were observed under an optical microscope.
An incidence rate calculation method involves a proportion of animals in each group meeting the above criteria for determining successful modeling, that is, incidence rate = (number of successfully modeled rats/total number of rats in the group)*100%. […]

[4] abbreviates: capecitabine and docetaxel models, 3% ointment topical or nicotinamide 100 mg/kg oral, once daily 16 days.
[5] abbreviates: sorafenib and osimertinib models, 3% ointment topical or nicotinamide 100 mg/kg oral, once daily 16 days.
The mark [6] stands for this setting: immunohistochemical staining, successfully modeled rats.
The mark [7] stands for this setting: successfully modeled rats versus normal rats, FIG. 8.

Structures are written as SMILES.

`NC(=O)c1cccnc1` [Nicotinamide, nicotinamide]: the “swelling of the toes caused by the modeling drugs” value in data set [1] (setting [4]) and in data set [2] (setting [5]) was “it was not observed that oral administration of the nicotinamide at 100 mg/kg significantly alleviated the swelling” in each case. Also, the “thickening of the epidermal layer and the stratum corneum in the skin tissues” value is given as “mildly alleviated” in data set [1] (setting [4]) and “didn't significantly alleviate” in data set [2] (setting [5]). In addition, the “expression level of cytokine IL-8 in the skin tissues of the hind limb toes” value in data set [1] (capecitabine model, 3% ointment topical or nicotinamide 100 mg/kg oral) was “didn't have a significant impact”. In addition, the “expression level of cytokine IL-6 in the skin tissues of the hind limb toes” value in data set [1] (docetaxel model, 3% ointment topical or nicotinamide 100 mg/kg oral) is “didn't have a significant impact”. In addition, the “expression level of cytokine IL-1β in the skin tissues of the hind limb toes” value in data set [2] (osimertinib model, 3% ointment topical or nicotinamide 100 mg/kg oral) is “didn't have a significant impact”; in data set [2] (sorafenib model, 3% ointment topical or nicotinamide 100 mg/kg oral) it was “didn't have a significant impact”.
Consider `C=CC(=O)Nc1cc(Nc2nccc(-c3cn(C)c4ccccc34)n2)c(OC)cc1N(C)CCN(C)C` [Osimertinib, osimertinib], for which, in data set [3] (rat, in vivo), the “KRT1 and Loricrin in tissues” value is “significantly increased”; the “stratum corneum thickness of the paw plantar skin” value (“stratum corneum thickness” below) was “significantly higher”. Besides, in data set [2], the “degree of swelling of the hind limb toes of the mice” value (“degree” below) is on record as “significant swelling”; the “epidermal layer and stratum corneum in the skin tissues of the hind limb toes” value (shortened to “epidermal layer and stratum corneum”) was “significantly thickened”; the “skin of the hind limb toes of the mice (appearance)” value (from here on “skin … (appearance)”) is “obvious erythema and rhagades”. Moreover, the “cytokine IL-1β in the skin tissues of the hind limb toes” value in data set [2] (osimertinib oral for 14 days versus normal control group) was “significantly increased”.
For the compound `CNC(=O)c1cc(Oc2ccc(NC(=O)Nc3ccc(Cl)c(C(F)(F)F)c3)cc2)ccn1` [Sorafenib, sorafenib, reference compound], in data set [3] (setting [6]), the “KRT1 and Loricrin in tissues” value is reported as “significantly increased”. In data set [3], the “Incidence rate, left paw” value was 9/12 (75%); the “Incidence rate, right paw” value is recorded as 9/12 (75%); the “successful modeling rates for the hand-foot skin reaction” value came to 75%. The “stratum corneum thickness” value in data set [3] (setting [7]) is given as “significantly higher”. In data set [2], the “degree” value was “significant swelling”; the “epidermal layer and stratum corneum” value is on record as “significantly thickened”; the “skin … (appearance)” value was “obvious erythema and rhagades”. In addition, the “cytokine IL-1β in the skin tissues of the hind limb toes” value in data set [2] (sorafenib oral for 14 days versus normal control group) is “significantly increased”.
Turning to `CC(=O)O[C@@]12CO[C@@H]1C[C@H](O)[C@@]1(C)C(=O)[C@H](O)C3=C(C)[C@@H](OC(=O)[C@H](O)[C@@H](NC(=O)OC(C)(C)C)c4ccccc4)C[C@@](O)([C@@H](OC(=O)c4ccccc4)[C@H]21)C3(C)C` [Docetaxel, docetaxel], in data set [1], the “degree” value is given as “swelling of the hind limb toes of the mice was caused”; the “epidermal layer and stratum corneum” value is “significantly thickened”; the “skin … (appearance)” value is “obvious erythema, rhagades, and blisters”. In addition, the “cytokine IL-6 in the skin tissues of the hind limb toes” value in data set [1] (docetaxel oral for 14 days versus normal control group, immunohistochemistry, p<0.05) was “significantly increased”.
Take `CN(C)C/C=C/C(=O)Nc1cc2c(Nc3ccc(F)c(Cl)c3)ncnc2cc1O[C@H]1CCOC1` [Afatinib, afatinib, reference compound]: the “KRT1 and Loricrin in tissues” value in data set [3] (setting [6]) is recorded as “significantly increased”. In addition, in data set [3], the “Incidence rate, left paw” value is listed as 8/12 (66.7%); the “Incidence rate, right paw” value was 8/12 (66.7%); the “successful modeling rates for the hand-foot skin reaction” value is 66.7%. For the same compound, in data set [3] (setting [7]), the “stratum corneum thickness” value is reported as “significantly higher”.
As for `C#Cc1cccc(Nc2ncnc3cc(OCCOC)c(OCCOC)cc23)c1` [Erlotinib, erlotinib, reference compound], in data set [3] (rat, in vivo), the “KRT1 and Loricrin in tissues” value is on record as “significantly increased”; the “stratum corneum thickness” value is “significantly higher”.
With `CCCCCOC(=O)Nc1nc(=O)n([C@@H]2O[C@H](C)[C@@H](O)[C@H]2O)cc1F` [Capecitabine, capecitabine], the “cytokine IL-8 in the skin tissues of the hind limb toes” value in data set [1] (capecitabine oral for 14 days versus normal control group, immunohistochemistry, p<0.05) is on record as “significantly increased”. Also, in data set [1], the “degree” value is on record as “swelling of the hind limb toes of the mice was caused”; the “epidermal layer and stratum corneum” value is listed as “significantly thickened”; the “skin … (appearance)” value was “obvious erythema, rhagades, and blisters”.

For the origin of these results see patent EP4789666A1, “RNA M6A REGULATOR COMPOSITION, PREPARATION METHOD THEREFOR, AND USE THEREOF” (SHANGHAI MERNA THERAPEUTICS CO. LTD, priority 2023, dated 2025).
